PubChem BioAssay AID1918998 (Molecular Pharmacology Branch, DTP, NCI, 2023)
Several values for one entry are separate records, joined by “and”; a condition that tells them apart may be missing. Equal entries are not always repeated.

Tested on: 521955-158-R2-J5-PDC complex spheroid growth
Test: Anticancer human tumor 521955-158-R2-J5-PDC patient-derived pancreatic carcinoma cell line growth inhibition [AhR]
Conditions: for viability, T/C: stronger effect = lower value
Text: Multicellular complex tumor spheroid response to aryl hydrocarbon receptor antagonists in combination with a variety of drugs and investigational agents in selected tumor cell lines
The current study was undertaken to assess response to aryl hydrocarbon receptor antagonists in combination with standard-of-care drugs and investigational agents in solid tumor complex spheroid models. Complex spheroids include a stromal component modeled by human endothelial cells (HUVEC) and fibroblasts modeled by human mesenchymal stem cells (MSCs). The concentration ranges selected for each drug and investigational agent were based upon clinically achievable concentrations if the clinical Cmax of the agent was known.
Compounds. The drugs and investigational agents: BAY 2416964 (NSC825713), GNF351 (NSC835774), CH-223191 (NSC835775), CPI-455 (NSC825282), aza-TdCyd (NSC777586), decitabine (NSC127716), belinostat (NSC758774), entinostat (NSC756642), pevonedistat (NSC761192), tazemetostat (NSC777109), talazoparib (NSC765396), olaparib (NSC753686), selinexor (NSC780203), nedisertib (M3814, NSC802822), bortezomib (NSC756655), venetoclax (NSC766270), doxorubicin (NSC123127), elimusertib (BAY189344, NSC800525), ceralasertib (AZD6738, NSC777638), TAK-243 (NSC785004), alisertib (NSC759677), etoposide (NSC141540), topotecan (NSC609699), eribulin (NSC707389), gemcitabine (NSC613327), carboplatin (NSC241240), cisplatin (NSC119875), and SN-38 (NSC673596) were obtained from the National Cancer Institute (NCI) Developmental Therapeutics Program Chemical Repository (32). The FDA-approved anticancer drug set is available from the Developmental Therapeutics Program at https://dtp.cancer.gov/organization/dscb/obtaining/available plates.htm. […] The stock solutions were prepared in dimethyl sulfoxide (DMSO, Sigma-Aldrich, St. Louis, MO, cat. D2650), except for the platinum compounds which were prepared in saline (Quality Biological, Gaithersburg, MD, cat. 114-055-101), at 800-fold the tested concentration and stored at -70 degrees C prior to their use. All drugs and investigational agents were tested over a range starting from a high concentration at or near the clinical Cmax and decreasing in half-log increments. If the clinical Cmax for an agent had not been determined, the highest concentration tested was 10 microM (Table 1).
Cell Culture. All cells were maintained in an incubator at 37 degrees C and 5% CO2 with 95% humidity. The PDC lines were cultured according to standard operating procedures established by the NCI PDMR (https://pdmr.cancer.gov). Briefly, all PDCs were thawed and cultured in Matrigel-coated flasks prepared with a working solution of 1X Ham's F-12 nutrient mix, without supplementation (Invitrogen, Waltham, MA, cat. 11765054), 100 U/mL penicillin-streptomycin (Invitrogen, cat. 15140122), and 2.5% Matrigel (Corning Inc., Corning, NY, cat. 354248) for the first three passages. All PDCs were cultured in complete DMEM/F-12 media containing advanced DMEM/F-12 (Invitrogen, cat. 12634028), 4.9% defined fetal bovine serum, heat inactivated (HyClone Laboratories Inc., Logan, UT, cat. SH30070.03HI), 389 ng/mL hydrocortisone (Sigma-Aldrich, cat. H4001), 9.7 ng/mL human EGF recombinant protein (Invitrogen, cat. PHG0313), 23.4 microg/mL adenine (Sigma-Aldrich, cat. A2786), 97.3 U/mL penicillin-streptomycin (Invitrogen, cat. 15140122), 1.9 mM L-glutamine (Invitrogen, cat. 25030081), and 9.7 microM Y-27632 dihydrochloride (Tocris Bioscience, Bristol, United Kingdom, cat. 1254). The PDCs were cultured in complete DMEM/F12 media without 10 microM Y-27632 dihydrochloride for at least two passages prior to the screen. The established cell lines NCI-H1341 and […] were cultured in DMEM/F-12, HEPES (Invitrogen, cat. 11330032), 5% defined fetal bovine serum (HyClone Laboratories Inc., cat. SH30070.03), ITS premix universal culture supplement [insulin (5 microg/mL), transferrin (5 microg/mL), and selenious acid (5 ng/mL)] […]
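Throughout, for viability, T/C: spheroids mix tumor cells with HUVEC endothelium and human MSC stroma; luminescence taken as viability surrogate after a week of drug exposure.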

Structure (SMILES) | viability, T/C (compound 0.0316 µM) | viability, T/C (compound 0.1 µM) | viability, T/C (compound 0.316 µM) | viability, T/C (compound 1 µM) | viability, T/C (compound 3.16 µM) | viability, T/C (compound 10 µM) | IC50 (curve of compound) | further results
COc1cccc2c1C(=O)c1c(O)c3c(c(O)c1C2=O)CC(O)(C(=O)CO)CC3OC1CC(N)C(O)C(C)O1 (configuration not stated) | 60.2% and 42.4% and 46.4% | 51.7% and 29.8% and 35.3% | 40.5% and 30.9% and 23.8% | 2.19% and 6.39% and 4.25% | 3.29% and 2.59% and 2.1% | 12.3% and 10.8% and 14% | 155 nM and < 31.6 nM | 
Cc1ccccc1N=Nc1ccc(NC(=O)c2ccnn2C)c(C)c1 |  |  |  |  |  |  |  | IC50 (compound alone, run of 06/14/2022): > 10000 nM
Cc1cncc(-c2nc(NCCc3c[nH]c4ccccc34)c3ncn(C(C)C)c3n2)c1 |  |  |  |  |  |  |  | IC50 (compound alone, run of 06/06/2022): > 10000 nM
Cn1ncnc1C1c2n[nH]c(=O)c3cc(F)cc(c23)NC1c1ccc(F)cc1 (configuration not stated) | 85.7% and 73.9% and 97.8% | 84.5% and 74% and 80.7% |  |  |  |  | > 100 nM | viability, T/C (compound 0.000316 µM): 106% and 64.7% and 90.7%; viability, T/C (compound 0.001 µM): 103% and 97.9% and 110%; viability, T/C (compound 0.00316 µM): 94.6% and 105% and 89.1%; viability, T/C (compound 0.01 µM): 94.8% and 75% and 89.5%
NS(=O)(=O)OCC1CC(n2ccc3c(NC4CCc5ccccc54)ncnc32)CC1O (configuration not stated) | 86.2% and 98.4% and 88.1% | 99.3% and 98.1% and 95.9% | 83.6% and 87.9% and 66% | 54.8% and 54.6% and 36.6% | 36.5% and 32.9% and 19.3% | 30.5% and 21% and 16.8% | 1330 nM and 598 nM | 
Nc1ccccc1NC(=O)c1ccc(CNC(=O)OCc2cccnc2)cc1 | 97.7% and 110% and 106% | 123% and 118% and 108% | 106% and 127% and 115% | 98.9% and 105% and 80% | 63.6% and 66.5% and 53.9% | 31.6% and 32.4% and 21.6% | 5150 nM and 5470 nM and 3260 nM | 
Nc1ccn(C2OC(CO)C(O)C2(F)F)c(=O)n1 (configuration not stated) | 73.8% and 54.7% and 44.6% | 79.4% and 73.8% and 60.9% | 62.2% and 61% and 53.9% | 39.4% and 28.6% and 24.9% | 29.8% and 15.9% and 17.8% | 28.7% and 13.2% and 15.3% | 590 nM and 472 nM and 359 nM | 
Nc1ncn(C2CC(O)C(CO)O2)c(=O)n1 (configuration not stated) | 88.8% and 87.9% and 88.9% | 73% and 52.6% and 68.5% | 65.5% and 53.7% and 63% | 48.3% and 38.4% and 39.5% |  |  | 907 nM and 158 nM and 564 nM | viability, T/C (compound 0.00316 µM): 92.7% and 87.2% and 101%; viability, T/C (compound 0.01 µM): 90.8% and 72.2% and 80.4%
Nc1ncn(C2CC(O)C(CO)S2)c(=O)n1 (configuration not stated) |  |  |  |  |  |  | > 300 nM | viability, T/C (compound 0.000949 µM): 104% and 88.3% and 99.6%; viability, T/C (compound 0.003 µM): 100% and 82.5% and 108%; viability, T/C (compound 0.00949 µM): 97.7% and 84.6% and 93%; viability, T/C (compound 0.03 µM): 93.5% and 74.3% and 75.1%; viability, T/C (compound 0.0949 µM): 98.7% and 75.1% and 73.7%; viability, T/C (compound 0.3 µM): 91.9% and 72.8% and 71.8%
O=C(C=Cc1cccc(S(=O)(=O)Nc2ccccc2)c1)NO | 97.4% and 85.1% and 115% | 95.1% and 99.1% and 103% | 94.2% and 96.2% and 102% | 88.4% and 104% and 69.3% | 59.1% and 79.9% and 54.3% | 40.5% and 52.5% and 24.2% | 5550 nM and > 10000 nM and 3320 nM | 
O=C(C=Cn1cnc(-c2cc(C(F)(F)F)cc(C(F)(F)F)c2)n1)NNc1cnccn1 |  |  |  |  |  |  | 256 nM and 163 nM and 48.8 nM | viability, T/C (compound 0.00949 µM): 73.8% and 59.8% (2×); viability, T/C (compound 0.03 µM): 59.6% and 58.9% and 58.5%; viability, T/C (compound 0.0949 µM): 50.6% and 38.9% and 40.5%; viability, T/C (compound 0.3 µM): 55.6% and 49.5% and 37.7%; viability, T/C (compound 0.949 µM): 45.3% and 45.9% and 37.6%; viability, T/C (compound 3 µM): 29.1% and 24.8% and 27.1%
O=C(c1cc(Cc2n[nH]c(=O)c3ccccc23)ccc1F)N1CCN(C(=O)C2CC2)CC1 | 95.8% and 118% and 96.5% | 104% and 72.7% and 112% | 117% and 80.1% and 96% | 89.8% and 84.7% and 92.4% | 104% and 92.2% and 90.4% | 84.5% and 65.4% and 76.3% | > 10000 nM | 
